Experimental data published in patent US20230098637A1, “PROGNOSTIC PATHWAYS FOR HIGH RISK SEPSIS PATIENTS” (InnoSIGN B.V., priority 2020, published 2023).
“Also recorded” adds a separate entry of the source.

Key:
Type in all cases: cell-based
[1] = system: ER cellular signaling pathway; experiment: AR inhibitor experiment in LPS-stimulated monocytes (THP1), ER pathway activity; conditions: THP1 monocytes cultured 24 hours with or without LPS, then with or without DHT
Method: (§1) FIG. 35 Schematic overview of AR inhibitor experiment. Depicts the experimental setup to determine if AR inhibitors can be used to mitigate the effect of LPS on monocytes (THP1 cells). In brief, monocyte cells (THP1) are cultured for 24 hours with or without LPS, after which the medium is changed and both conditions are subsequently cultured with or without DHT. Both LPS and DHT are anticipated to activate the AR cellular signaling pathway. In a parallel experiment, THP1 cells are first cultured for 24 hours with LPS, after which the medium is changed and the cells are cultured with one of ARCC-4, ARD-266, A-458 and bicalutamide.
as §1, with “describes” for “Schematic overview of AR inhibitor experiment. Depicts”, “set-up used.” for “setup to determine if AR inhibitors can be used to mitigate the effect of LPS on monocytes (THP1 cells).”
(§2) All experimental conditions were subjected to cellular signaling pathways analysis.

[2] = system: HH (Hedgehog) cellular signaling pathway; experiment: AR inhibitor experiment in LPS-stimulated monocytes (THP1), HH pathway activity; conditions: THP1 monocytes cultured 24 hours with or without LPS, then with or without DHT
Method: as §1
as §1, with “describes” for “Schematic overview of AR inhibitor experiment. Depicts”, “set-up used.” for “setup to determine if AR inhibitors can be used to mitigate the effect of LPS on monocytes (THP1 cells).”
as §2

[3] = system: TGFbeta cellular signaling pathway; experiment: AR inhibitor experiment in LPS-stimulated monocytes (THP1), TGFbeta pathway activity; conditions: THP1 monocytes cultured 24 hours with or without LPS, then with or without DHT
Method: as §1
as §1, with “describes” for “Schematic overview of AR inhibitor experiment. Depicts”, “set-up used.” for “setup to determine if AR inhibitors can be used to mitigate the effect of LPS on monocytes (THP1 cells).”
as §2

[4] = system: AR cellular signaling pathway; experiment: AR inhibitor experiment in LPS-stimulated monocytes (THP1), AR pathway activity; conditions: THP1 monocytes cultured 24 hours with or without LPS, then with or without DHT
Method: as §1
as §1, with “describes” for “Schematic overview of AR inhibitor experiment. Depicts”, “set-up used.” for “setup to determine if AR inhibitors can be used to mitigate the effect of LPS on monocytes (THP1 cells).”
as §2

[5] = system: AR pathway; experiment: LPS stimulation of THP-1 cells, AR pathway activity (qPCR OncoSignal); conditions: LPS from E. coli 10, 50, 100 ng/ml, 24 hours, vs control
Method: (§3) To study the inflammation process we stimulated the monocytic THP-1 cells (ATCC® TIB-202™) using 3 different concentrations of LPS originated from E. coli ([…], 10 ng/ml, 50 ng/ml and 100 ng/ml) into culture medium (DMEM, supplemented with 10% FBS, 1% glutamax and 1% pen strep at 37° C. 5% CO2.) of THP-1 for 24 hours. After stimulation cells were harvested and RNA was extracted using the RNeasy mini kit (Qiagen, 74104). qPCR was performed using the Philips Research OncoSignal platform. […] The activation of the AR and TGFBeta pathways was also seen in sepsis samples confirms the role of these pathways in inflammation.

[6] = system: TGFBeta pathway; experiment: LPS stimulation of THP-1 cells, TGFBeta pathway activity; conditions: LPS from E. coli 10, 50, 100 ng/ml, 24 hours, vs control
Method: as §3

[7] = system: WNT pathway; experiment: LPS stimulation of THP-1 cells, WNT pathway activity; conditions: LPS from E. coli 10, 50, 100 ng/ml, 24 hours, vs control
Method: as §3

[8] = system: FOXO pathway; experiment: LPS stimulation of THP-1 cells, FOXO pathway activity; conditions: LPS from E. coli 10, 50, 100 ng/ml, 24 hours, vs control
Method: as §3

Compound | ER cellular signaling pathway activity [1] | HH cellular signaling pathway activity [2] | TGFbeta cellular signaling pathway activity [3] | AR cellular signaling pathway activity [4] | AR pathway activity [5] | TGFBeta pathway activity [6] | WNT pathway activity [7] | FOXO pathway activity [8]
C[C@]12CCC(=O)C[C@@H]1CC[C@@H]1[C@@H]2CC[C@]2(C)[C@@H](O)CC[C@@H]12 [DHT] | not substantially affected | not substantially affected | did not increase | increase |  |  |  | 
lipopolysaccharide [LPS] | not substantially affected | not substantially affected | increased | able to stimulate; also recorded: increase | increased | increased | increased | increased
